Structures are written as SMILES. Where a name gives a salt, the structure may show the parent alone.

Sequence of TrkA (P04629 33-796): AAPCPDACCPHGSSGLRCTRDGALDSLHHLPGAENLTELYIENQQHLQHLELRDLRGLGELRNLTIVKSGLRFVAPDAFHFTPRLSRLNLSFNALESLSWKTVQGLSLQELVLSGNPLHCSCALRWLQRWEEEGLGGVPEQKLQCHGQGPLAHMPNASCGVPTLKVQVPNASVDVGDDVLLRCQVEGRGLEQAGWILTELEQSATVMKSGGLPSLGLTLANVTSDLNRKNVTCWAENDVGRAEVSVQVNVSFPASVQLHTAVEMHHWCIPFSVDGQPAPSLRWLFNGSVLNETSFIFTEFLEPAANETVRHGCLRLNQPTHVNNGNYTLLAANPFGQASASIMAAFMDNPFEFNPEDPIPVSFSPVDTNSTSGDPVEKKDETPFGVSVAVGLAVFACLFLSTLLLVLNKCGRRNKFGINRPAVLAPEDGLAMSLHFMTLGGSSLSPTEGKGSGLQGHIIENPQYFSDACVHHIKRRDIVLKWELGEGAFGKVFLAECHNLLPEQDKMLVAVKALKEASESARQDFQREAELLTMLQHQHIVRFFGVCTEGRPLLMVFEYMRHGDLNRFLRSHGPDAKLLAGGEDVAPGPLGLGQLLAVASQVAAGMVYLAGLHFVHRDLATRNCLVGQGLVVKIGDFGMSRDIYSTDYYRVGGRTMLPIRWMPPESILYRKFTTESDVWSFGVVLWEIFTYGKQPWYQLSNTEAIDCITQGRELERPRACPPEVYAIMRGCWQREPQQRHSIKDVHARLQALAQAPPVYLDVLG

The test has as its target TrkA (Homo sapiens (Human), UniProt P04629). Description: TrkA Omnia Assay. The test is classed as biochemical. The conditions noted are these: averaged IC50; 20 nM enzyme, 500 μM ATP, 10 μM peptide substrate. Summed up: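 Recombinant TrkA (20 nM) preincubated 10 min at ambient temperature with compound, then Omnia Tyr Peptide #4 (10 μM) and ATP (500 μM) added in 25 mM MOPS pH 7.5, 5 mM MgCl2, 0.005% Triton X-100. Fluorescence (ex 360/em 485 nm) followed continuously for 70 min; IC50 from initial rates by 4- or 5-parameter logistic fit.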
In general, IC50 refers to the concentration that inhibits the measured activity by half. The low end stands for higher potency, the high end for lower potency. Take `COCCN1C[C@@H](NC(=O)Nc2c(C)c(CO)nn2-c2ccccc2)[C@H](c2ccc(F)c(F)c2)C1` [Example 132, 1-((3S,4R)-4-(3,4-difluorophenyl)-1-(2-methoxyethyl)pyrrolidin-3-yl)-3-(3-(hydroxy-methyl)-4-methyl-1-phenyl-1H-pyrazol-5-yl)urea]: the IC50 was below 100 nM.

The compound `COCCN1C[C@@H](NC(=O)Nc2cc(-c3ccc(Cl)cc3)nn2C)[C@H](c2ccc(F)c(F)c2)C1` [Example 119, 1-(3-(4-chlorophenyl)-1-methyl-1H-pyrazol-5-yl)-3-((3S,4R)-4-(3,4-difluorophenyl)-1-(2-methoxyethyl)pyrrolidin-3-yl)urea] gave a concentration for half-maximal inhibition (IC50) below 100 nM.

Turning to `COCCN1C[C@@H](NC(=O)Nc2c(C)c([C@@H]3CCCN3C)nn2-c2ccccc2)[C@H](c2cc(F)cc(F)c2)C1` [Example 598, 1-((3S,4R)-4-(3,5-difluorophenyl)-1-(2-methoxyethyl)pyrrolidin-3-yl)-3-(4-methyl-3-((S)-1-methylpyrrolidin-2-yl)-1-phenyl-1H-pyrazol-5-yl)urea dihydrochloride], the IC50 was below 100 nM.

Compound `COCCN1C[C@@H](NC(=O)Nc2c(C)c(C(F)(F)CO)nn2-c2ccccc2)[C@H](c2cc(F)cc(F)c2)C1` [Example 283, 1-(3-(1,1-difluoro-2-hydroxyethyl)-4-methyl-1-phenyl-1H-pyrazol-5-yl)-3-((3S,4R)-4-(3,5-difluorophenyl)-1-(2-methoxyethyl)pyrrolidin-3-yl)urea] showed an IC50 below 100 nM. Under `COCCN1C[C@@H](NC(=O)Nc2c(C)c(-c3ccn(C)c(=O)c3)nn2-c2ccccc2)[C@H](c2cccc(F)c2)C1` [Example 531, 1-((3S,4R)-4-(3-fluorophenyl)-1-(2-methoxyethyl)pyrrolidin-3-yl)-3-(4-methyl-3-(1-methyl-2-oxo-1,2-dihydropyridin-4-yl)-1-phenyl-1H-pyrazol-5-yl)urea] stands below 100 nM; under `COCCN1C[C@@H](NC(=O)Nc2c(C)c(-c3ccn(C)n3)nn2-c2ccccc2)[C@H](c2ccc(F)cc2)C1` [Example 492, 1-(1′,4-dimethyl-1-phenyl-1H, 1′H-[3,3′-bipyrazol]-5-yl)-3-((3S,4R)-4-(4-fluorophenyl)-1-(2-methoxyethyl)pyrrolidin-3-yl)urea], below 100 nM; under `COCCN1C[C@@H](NC(=O)Nc2c(Br)c(C3CCOCC3)nn2-c2ccccc2)[C@H](c2ccc(F)c(F)c2)C1` [Example 574, 1-(4-bromo-1-phenyl-3-(tetrahydro-2H-pyran-4-yl)-1H-pyrazol-5-yl)-3-((3S,4R)-4-(3,4-difluorophenyl)-1-(2-methoxyethyl)pyrrolidin-3-yl)urea], below 100 nM.

In turn, `COCCN1C[C@@H](NC(=S)Nc2c3c(nn2-c2ccccc2)CCC3)[C@H](c2ccccc2)C1` (relative stereo) [Example 21, 1-(trans-1-(2-methoxyethyl)-4-phenylpyrrolidin-3-yl)-3-(2-phenyl-2,4,5,6-tetrahydrocyclopenta[c]pyrazol-3-yl)thiourea] came in with an IC50 below 100 nM. To `COCCN1C[C@@H](NC(=O)Nc2c(Br)c(COC)nn2-c2ccccc2)[C@H](c2ccc(F)c(F)c2)C1` [Example 404, 1-(4-bromo-3-(methoxymethyl)-1-phenyl-1H-pyrazol-5-yl)-3-((3S,4R)-4-(3,4-difluorophenyl)-1-(2-methoxyethyl)pyrrolidin-3-yl)urea] belongs below 100 nM; to `COCCN1C[C@@H](NC(=O)Nc2c(C)c(-c3cnn(C)c3)nn2-c2ccccc2)[C@H](c2cnn(C)c2)C1` (relative stereo) [Example 333, 1-(1′,4-dimethyl-1-phenyl-1H,1'H-[3,4′-bipyrazol]-5-yl)-3-(trans-1-(2-methoxyethyl)-4-(1-methyl-1H-pyrazol-4-yl)pyrrolidin-3-yl)urea], 100 to 1000 nM; to `COCCN1C[C@@H](NC(=O)Nc2cc(C(C)(C)C#N)nn2-c2ccccc2)[C@H](c2ccc(F)c(F)c2)C1` [Example 71, 1-(3-(2-cyanopropan-2-yl)-1-phenyl-1H-pyrazol-5-yl)-3-((3S,4R)-4-(3,4-difluorophenyl)-1-(2-methoxyethyl)pyrrolidin-3-yl)urea], below 100 nM. Under `COCCN1C[C@@H](NC(=O)Nc2c(Br)c(C)nn2-c2ccccc2)[C@H](c2cncc(F)c2)C1` [Example 433] stands below 100 nM; under `COCCN1C[C@@H](NC(=O)Nc2c(Cl)c(-c3ccccc3)nn2-c2cccnc2)[C@H](c2ccc(F)c(F)c2)C1` [Example 485, 1-(4-chloro-3-phenyl-1-(pyridin-3-yl)-1H-pyrazol-5-yl)-3-((3S,4R)-4-(3,4-difluorophenyl)-1-(2-methoxyethyl)pyrrolidin-3-yl)urea], 100 to 1000 nM; under `COCCN1C[C@@H](NC(=O)Nc2c(C)c(C)nn2-c2ccccc2)[C@H](c2ccccc2)C1` (relative stereo) [Example 18, 1-(3,4-dimethyl-1-phenyl-1H-pyrazol-5-yl)-3-(trans-1-(2-methoxyethyl)-4-phenylpyrrolidin-3-yl)urea], below 100 nM. To `COCCN1C[C@@H](NC(=O)Nc2cc(C(C)(C)C)nn2C)[C@H](c2ccccc2)C1` (relative stereo) [Example 5, 1-(3-tert-butyl-1-methyl-1H-pyrazol-5-yl)-3-(trans-1-(2-methoxyethyl)-4-phenylpyrrolidin-3-yl) urea] belongs 1000 to 10000 nM; to `COCCN1C[C@@H](NC(=O)Nc2c(C)c(C[C@@H](C)O)nn2-c2ccccc2)[C@H](c2ccc(F)c(F)c2)C1` [Example 290, 1-((3S,4R)-4-(3,4-difluorophenyl)-1-(2-methoxyethyl)pyrrolidin-3-yl)-3-(3-((R)-2-hydroxypropyl)-4-methyl-1-phenyl-1H-pyrazol-5-yl)urea], below 100 nM. Take `COCCN1C[C@@H](NC(=O)Nc2c(Cl)c(COC)nn2-c2ccccc2)[C@H](c2cc(F)cc(F)c2)C1` [Example 405, 1-(4-chloro-3-(methoxymethyl)-1-phenyl-1H-pyrazol-5-yl)-3-((3S,4R)-4-(3,5-difluorophenyl)-1-(2-methoxyethyl)pyrrolidin-3-yl)urea]: the IC50 was below 100 nM. Compound `CCOc1nn(-c2ccccc2)c(NC(=O)N[C@@H]2CN([C@@H](CO)C(F)(F)F)C[C@H]2c2ccc(F)c(F)c2)c1C` [Example 275, 1-((3S,4R)-4-(3,4-difluorophenyl)-1-((S)-1,1,1-trifluoro-3-hydroxypropan-2-yl)pyrrolidin-3-yl)-3-(3-ethoxv-4-methyl-1-phenyl-1H-pyrazol-5-yl)urea] yielded an IC50 of 100 to 1000 nM.

The compound `COCCN1C[C@@H](NC(=O)Nc2c(C)c(OCCN)nn2-c2ccccc2)[C@H](c2ccc(F)c(F)c2)C1` [Example 543, 1-(3-(2-aminoethoxy)-4-methyl-1-phenyl-1H-pyrazol-5-yl)-3-((3S,4R)-4-(3,4-difluorophenyl)-1-(2-methoxyethyl)pyrrolidin-3-yl)urea] returned an IC50 below 100 nM. To `COCCN1C[C@@H](NC(=O)Nc2c(C)c(-c3ccc(=O)n(C)c3)nn2-c2ccccc2)[C@H](c2cc(F)c(F)c(F)c2)C1` [Example 604, 1-((3S,4R)-1-(2-methoxyethyl)-4-(3,4,5-trifluorophenyl)pyrrolidin-3-yl)-3-(4-methyl-3-(1-methyl-6-oxo-1,6-dihydropyridin-3-yl)-1-phenyl-1H-pyrazol-5-yl)urea] belongs below 100 nM.

Source of the values: patent publication US10323022B2, “Pyrrolidinyl urea, pyrrolidinyl thiourea and pyrrolidinyl guanidine compounds as TrkA kinase inhibitors” (Array BioPharma Inc., priority 2011, dated 2019).
